In patent US8188059B2, “Compounds and methods for modulating expression of GCGR” (Isis Pharmaceuticals, Inc., priority 2006, dated 2012):

Experiments:
Format in all cases: in vivo, mouse
[1] = Total and full-length antisense compound concentrations in liver and kidney (Example 4, Table 42); conditions: C57/BL6 mice; single i.p. dose; 48 h; dose not given
Method: (§1) Eight-week old male C57/BL6 mice (Jackson Laboratory, Bar Harbor, Me.) were administered a single dose of GCGR oligonucleotide by intraperitoneal injection at a concentration of […]. Each dose group consisted of four animals. Shown in Table 31 are the sequences, motifs and conjugates of the GCGR antisense compounds used in this study. Bolded residues indicate 2′-O-methoxyethyl (2′-MOE) moieties. All compounds comprise phosphorothioate internucleoside linkages throughout and each cytosine is replaced with 5-methylcytosine. ISIS 386626, ISIS 386627 and ISIS 386628 further comprise a C16 conjugate group attached to the 2′-O position of the sugar via a diamide linkage (2′-OCH2C(═O)N(H)(CH2)4N(H)C(═O)—(CH2)15CH3). GCGR antisense compounds target published GCGR sequences, including Genbank® Accession No. BC031885.1 (SEQ ID NO: 7).
(§2) Mice were sacrificed 48 hours following injection to determine serum transaminase levels (Table 32); liver, white adipose tissue (WAT), spleen and kidney weight (Table 33); cholesterol, triglyceride and glucose levels (Table 34); GCGR mRNA levels (Tables 35-41); and full-length and total oligonucleotide concentration in liver and kidney (Table 42). Endpoints were assessed using methods described herein and well known to those of ordinary skill in the art. Data is included from a pre-treatment bleed (Pre-Bleed) and post-treatment bleed (Post-Bleed).
Treatment with the 2-10-2 MOE gapmers led to a significant dose-dependent decrease in GCGR mRNA expression. […] To determine whether the observed increase in efficiency with the short antisense compounds is due to an increase in antisense compound accumulation, full-length and total antisense compound concentration in the liver and kidney were determined.

[2] = Organ weights: liver, white adipose tissue, spleen, kidney (Example 4, Table 33); conditions: 48 h, C57/BL6 mice
Method: as §1, §2

[3] = Triglyceride, cholesterol and glucose levels, pre-bleed and post-bleed (Example 4, Table 34); design: TRIG Pre-Bleed / TRIG Post-Bleed / CHOL Pre-Bleed / CHOL Post-Bleed / Glucose Pre-Bleed / Glucose Post-Bleed: unit not given here; conditions: C57/BL6 mice; for CHOL Pre-Bleed / Glucose Pre-Bleed / TRIG Pre-Bleed: pre-treatment bleed; for CHOL Post-Bleed / Glucose Post-Bleed / TRIG Post-Bleed: post-treatment bleed, 48 h
Method: as §1, §2

[4] = ALT & AST levels, C57/BL6 mice (Example 4, Table 32); conditions: for ALT Pre-Bleed / AST Pre-Bleed: pre-treatment bleed; for ALT Post-Bleed / AST Post-Bleed: 48 hours following injection
Method: as §1, §2

[5] = tested on: GCGR mRNA; test: GCGR mRNA levels in liver of C57/BL6 mice, single i.p. dose (Example 4, Tables 35-41); conditions: 48 h
Method: as §1, §2
To determine whether the phenotypic changes shown above correlated with a decrease in GCGR mRNA, treated animals were evaluated for levels of target mRNA in liver by real time PCR according to methods described herein. Tables 35 to 41 show results from direct comparisons of the antisense compounds targeting GCGR nucleic acid for their effect on target expression. Results are expressed as percent of saline control.

386628 (antisense TGTCTTGCTGCTTT; chemistry not fully specified) [compound 386628]
Full-length antisense compound concentration, Kidney [1]: 305 µg/g
Full-length antisense compound concentration, Liver [1]: 202 µg/g
Total antisense compound concentration, Kidney [1]: 496 µg/g
Total antisense compound concentration, Liver [1]: 286 µg/g
Organ weight: Kidney ([2]; 6.25 mg/kg single i.p.): 102 % saline control
Organ weight: Liver ([2]; 6.25 mg/kg single i.p.): 98 % saline control
Organ weight: Spleen ([2]; 6.25 mg/kg single i.p.): 151 % saline control
Organ weight: WAT ([2]; 6.25 mg/kg single i.p.): 106 % saline control
Organ weight: Kidney ([2]; 12.5 mg/kg single i.p.): 99 % saline control
Organ weight: Liver ([2]; 12.5 mg/kg single i.p.): 101 % saline control
Organ weight: Spleen ([2]; 12.5 mg/kg single i.p.): 114 % saline control
Organ weight: WAT ([2]; 12.5 mg/kg single i.p.): 111 % saline control
Organ weight: Kidney ([2]; 25 mg/kg single i.p.): 109 % saline control
Organ weight: Liver ([2]; 25 mg/kg single i.p.): 102 % saline control
Organ weight: Spleen ([2]; 25 mg/kg single i.p.): 113 % saline control
Organ weight: WAT ([2]; 25 mg/kg single i.p.): 97 % saline control
Organ weight: Kidney ([2]; 50 mg/kg single i.p.): 99 % saline control
Organ weight: Liver ([2]; 50 mg/kg single i.p.): 104 % saline control
Organ weight: Spleen ([2]; 50 mg/kg single i.p.): 126 % saline control
Organ weight: WAT ([2]; 50 mg/kg single i.p.): 100 % saline control
CHOL Pre-Bleed ([3]; 6.25 mg/kg group): 83
Glucose Pre-Bleed ([3]; 6.25 mg/kg group): 228
TRIG Pre-Bleed ([3]; 6.25 mg/kg group): 117
CHOL Post-Bleed ([3]; 6.25 mg/kg single i.p.): 85
Glucose Post-Bleed ([3]; 6.25 mg/kg single i.p.): 229
TRIG Post-Bleed ([3]; 6.25 mg/kg single i.p.): 121
CHOL Pre-Bleed ([3]; 12.5 mg/kg group): 90
Glucose Pre-Bleed ([3]; 12.5 mg/kg group): 231
TRIG Pre-Bleed ([3]; 12.5 mg/kg group): 90
CHOL Post-Bleed ([3]; 12.5 mg/kg single i.p.): 94
Glucose Post-Bleed ([3]; 12.5 mg/kg single i.p.): 240
TRIG Post-Bleed ([3]; 12.5 mg/kg single i.p.): 123
CHOL Pre-Bleed ([3]; 25 mg/kg group): 84
Glucose Pre-Bleed ([3]; 25 mg/kg group): 210
TRIG Pre-Bleed ([3]; 25 mg/kg group): 102
CHOL Post-Bleed ([3]; 25 mg/kg single i.p.): 85
Glucose Post-Bleed ([3]; 25 mg/kg single i.p.): 223
TRIG Post-Bleed ([3]; 25 mg/kg single i.p.): 129
CHOL Pre-Bleed ([3]; 50 mg/kg group): 88
Glucose Pre-Bleed ([3]; 50 mg/kg group): 209
TRIG Pre-Bleed ([3]; 50 mg/kg group): 102
CHOL Post-Bleed ([3]; 50 mg/kg single i.p.): 95
Glucose Post-Bleed ([3]; 50 mg/kg single i.p.): 232
TRIG Post-Bleed ([3]; 50 mg/kg single i.p.): 98
ALT Pre-Bleed ([4]; 6.25 mg/kg dose group): 22 IU/L
AST Pre-Bleed ([4]; 6.25 mg/kg dose group): 40 IU/L
ALT Pre-Bleed ([4]; 12.5 mg/kg dose group): 28 IU/L
AST Pre-Bleed ([4]; 12.5 mg/kg dose group): 42 IU/L
ALT Pre-Bleed ([4]; 25 mg/kg dose group): 24 IU/L
AST Pre-Bleed ([4]; 25 mg/kg dose group): 40 IU/L
ALT Pre-Bleed ([4]; 50 mg/kg dose group): 28 IU/L
AST Pre-Bleed ([4]; 50 mg/kg dose group): 44 IU/L
ALT Post-Bleed ([4]; single i.p. dose 6.25 mg/kg): 29 IU/L
AST Post-Bleed ([4]; single i.p. dose 6.25 mg/kg): 59 IU/L
ALT Post-Bleed ([4]; single i.p. dose 12.5 mg/kg): 35 IU/L
AST Post-Bleed ([4]; single i.p. dose 12.5 mg/kg): 75 IU/L
ALT Post-Bleed ([4]; single i.p. dose 25 mg/kg): 32 IU/L
AST Post-Bleed ([4]; single i.p. dose 25 mg/kg): 57 IU/L
ALT Post-Bleed ([4]; single i.p. dose 50 mg/kg): 68 IU/L
AST Post-Bleed ([4]; single i.p. dose 50 mg/kg): 76 IU/L
GCGR mRNA levels in liver ([5]; 6.25 mg/kg single i.p., Table 38 comparison ISIS 148364 & ISIS 386628): 77% of saline control
GCGR mRNA levels in liver ([5]; 6.25 mg/kg single i.p., Table 41 comparison ISIS 386628 & ISIS 386594): 97% of saline control
GCGR mRNA levels in liver ([5]; 12.5 mg/kg single i.p., Table 38 comparison ISIS 148364 & ISIS 386628): 53% of saline control
GCGR mRNA levels in liver ([5]; 12.5 mg/kg single i.p., Table 41 comparison ISIS 386628 & ISIS 386594): 38% of saline control
GCGR mRNA levels in liver ([5]; 25 mg/kg single i.p., Table 38 comparison ISIS 148364 & ISIS 386628): 18% of saline control
GCGR mRNA levels in liver ([5]; 25 mg/kg single i.p., Table 41 comparison ISIS 386628 & ISIS 386594): 13% of saline control
GCGR mRNA levels in liver ([5]; 50 mg/kg single i.p., Table 38 comparison ISIS 148364 & ISIS 386628): 2% of saline control
GCGR mRNA levels in liver ([5]; 50 mg/kg single i.p., Table 41 comparison ISIS 386628 & ISIS 386594): 4% of saline control
